{
  "source": "patent US20050118601A1",
  "about": "“Enhancer sequence of the 5-aminolevulinic acid synthase gene” (priority 2002, published 2005)",
  "key": {"[1]": {"system": "chicken ALAS1 drug responsive enhancer sequence (ADRES) elements", "assay": "Luciferase reporter gene assay of chicken ALAS1 5'-flanking fragments / ADRES elements in transfected LMH cells", "format": "cell-based", "details": "for ADRES activation in reporter assays: LMH cells, 16 h, PIA 250 μM, glutethimide 500 μM, metyrapone 400 μM, dexamethasone 50 μM, RU-486 10 μM, rifampicin 100 μM, TCPOBOP 10 μM, compared with PB 600 μM", "experimental": "The constructs were transfected together with a transfection-control construct expressing β-galactosidase into LMH cells. Cells were then treated with 600 μM PB for 16 h and luciferase assays were performed on the cell extracts. Relative luciferase levels are standardized against cells transfected with vector containing no insert and expressed as fold induction. Experiments were repeated at least three times and data from a representative experiment tested in triplicate are shown here. Error bars represent standard deviations;\nThree major subclones were generated from the region upstream of the transcriptional start site, including a 3282 bp SmaI fragment and 5056 bp and 7973 bp EcoRI segments (FIG. 1A). The SmaI clone extends from −167 bp to −3449 bp, whereas the EcoRI subfragments span the regions from −2347 bp to −7402 bp and −7403 bp to −15376 bp, respectively. These subfragments were cloned into the pLucMCS modified luciferase vector containing an SV40 promoter as described in Materials and Methods. Drug inducibility was measured in transiently transfected LMH cells treated with 600 μM PB and compared with control values. […]\nThe modified enhancers were examined for response to 600 μM PB in luciferase reporter gene assays and the results are presented in FIG. 3.\nLeghorn Male Hepatoma (LMH) cells were obtained from the American Type Culture Collection and cultivated in 10 cm dishes in Williams E medium supplemented with 10% FCS, 1% glutamine (2 mM) and 1% penicillin/streptomycin (50 IU/ml). Dishes coated with 0.1% gelatin were used for routine culture of LMH cells in order to facilitate proper seating of the cells onto the plastic plate surface."}, "[2]": {"system": "ALAS1 mRNA", "assay": "ALAS1 mRNA quantification (Taqman real-time PCR) in LMH cells", "format": "cell-based, chicken", "experimental": "We next wanted to compare ADRES-mediated ALAS1 induction levels from reporter gene assays with stimulation of transcription in a physiological system. […] In addition, the common CYP3A inducers dexamethasone (50 μM), metyrapone (400 μM), and 10 μM mifepristone (RU-486) were employed for comparison. We were also interested in the effects of […] 5-pregnen-3β-ol-20-one-16α-carbonitrile (PCN) and rifampicin (100 μM) due to their species-specific effects on PXR activation and CYP3A induction. Messenger RNA was reverse transcribed and levels of ALAS1 cDNA were quantified using the Taqman real-time PCR quantification system as described in Materials and Methods. […] This value was chosen to represent 100% induction, against which all other values are compared.\nLMH cells were plated onto 12-well plates, expanded to 70-80% surface density and incubated in serum-free media for 24 h. Cells were then exposed to either drug or vehicle and RNA was isolated with Trizol reagent (Gibco BRL) according to the manufacturer protocol. One μg of total RNA was reverse transcribed with the Moloney murine leukemia virus reverse transcriptase kit (Roche Molecular Biochemicals). PCR was performed using the Taqman PCR core reagent kit (PE Applied Biosystems) and transcript levels quantitated with an ABI Prism 7700 sequence detection system (PE Applied Biosystems). Relative transcript levels were determined using the relative quantitation method measuring the ΔΔCt. The following primers and probes were used in these reactions. […] Transcript levels were measured in separate tubes and GAPDH values were used for normalization of ALAS1 values."}, "[3]": {"target": "T1, mouse PXR (Mus musculus, UniProt O54915)", "T1 sequence (O54915 1-431)": "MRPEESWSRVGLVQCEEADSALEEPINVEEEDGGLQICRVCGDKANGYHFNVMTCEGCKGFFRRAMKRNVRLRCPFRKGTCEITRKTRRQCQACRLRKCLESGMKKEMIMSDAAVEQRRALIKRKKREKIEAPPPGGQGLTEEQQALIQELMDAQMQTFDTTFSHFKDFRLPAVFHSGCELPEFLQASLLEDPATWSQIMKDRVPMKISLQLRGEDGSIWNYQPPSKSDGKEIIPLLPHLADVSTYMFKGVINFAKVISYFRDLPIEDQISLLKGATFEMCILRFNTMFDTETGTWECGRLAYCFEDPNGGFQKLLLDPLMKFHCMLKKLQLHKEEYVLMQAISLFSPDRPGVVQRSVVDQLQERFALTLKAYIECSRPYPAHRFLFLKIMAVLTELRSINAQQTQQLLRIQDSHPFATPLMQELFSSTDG", "experimental": "(§1) To test the effects of the mutations on transcriptional activation, transactivations in CV-1 cells with mouse PXR and mouse CAR and their respective inducers PCN and TCPOBOP, were performed (FIG. 14). The inducible DNA constructs were subcloned into the CAT5 reporter vector and tested for their ability to be transactivated by nuclear receptor transcription factors in CV-1 cells. Mouse PXR (A) and mouse CAR (B) coding regions cloned into the pSG5 expression vector were cotransfected along with a vector expressing pSV β-galactosidase as control. Cells were then treated for 16 h with either drugs (A, PCN; B, TCPOBOP) or vehicle control and cell extracts were analyzed for CAT expression normalized against β-galactosidase levels. Experiments were repeated at least three times and error bars represent standard deviations."}, "[4]": {"target": "T2, mouse CAR (Mus musculus, UniProt O35627)", "T2 construct": "expressed in transfected cells; host or cells: CV-1 cells, pSG5 expression vector", "T2 sequence (O35627 1-358)": "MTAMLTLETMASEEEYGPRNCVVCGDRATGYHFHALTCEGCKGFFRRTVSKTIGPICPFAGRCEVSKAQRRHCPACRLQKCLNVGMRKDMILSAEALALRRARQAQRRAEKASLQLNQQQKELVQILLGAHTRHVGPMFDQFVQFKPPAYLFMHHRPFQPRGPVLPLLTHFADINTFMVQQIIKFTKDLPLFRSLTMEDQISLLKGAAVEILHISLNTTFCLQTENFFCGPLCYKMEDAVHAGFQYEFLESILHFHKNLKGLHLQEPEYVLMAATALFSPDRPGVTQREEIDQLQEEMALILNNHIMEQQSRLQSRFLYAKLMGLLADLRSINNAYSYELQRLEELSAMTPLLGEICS", "assay": "Transactivation of 369 bp ADRES by mouse CAR in CV-1 cells (CAT reporter)", "format": "cell-based", "experimental": "as §1"}, "[5]": {"system": "mouse 369 bp DRES", "assay": "Luciferase reporter gene assay of mouse ALAS1 fragments / 369 bp DRES in LMH cells", "format": "cell-based", "details": "for induction of the 369 bp DRES, ranking of drugs: metyrapone 500 μM, glutethimide 500 μM, PIA 250 μM", "experimental": "A 175 bp fragment (441 to 615) (Seq. Id. No. 3) was isolated by digesting the 2.6 kb fragment with SacI/XbaI. All fragments were subcloned in the pGL3LUCpro+MCS vector and the resulting constructs tested for inducibility in LMH reporter gene assay (FIG. 6). […] The 369 bp fragment was termed Drug responsive enhancer sequence DRES.\nTo compare the 369 bp DRES to other inducible fragments, a series of different drugs was used as inducers: clothrimazole (Clo, 10 μM), dexamethasone (Dex, 50 μM), glutethimide (GE, 500 μM), metyrapone (Met, 500 μM), phenobarbital (PB, 500 μM), PCN (10 μM), propylisopropylacetamide (PIA, 250 μM), rifampicin (Rif, 10 μM), RU486 (10 μM), TCPOBOP (10 μM).\nData shown is from two independent experiments."}},
  "note": "Read-outs that look alike come from different tables or passages of the source.",
  "data": [
    {"smiles": "CC(=O)[C@H]1[C@H](C#N)C[C@H]2[C@@H]3CC=C4C[C@@H](O)CC[C@]4(C)[C@H]3CC[C@@]21C", "note": "[PCN, 5-pregnene-3β-ol-20-one-16α-carbonitrile]", "values": [
      {"measurement": "ADRES activation in reporter assays", "setting": "[1]", "value": "minor or no effects"},
      {"measurement": "effect on ALAS1 mRNA levels", "setting": "[2]", "value": "minor or no effects"},
      {"measurement": "activation, DR4-1 double mutant", "setting": "[3]", "value": 1.9, "unit": "fold"},
      {"measurement": "activation, first DR4-2 single mutant (DR4-2/hs1)", "setting": "[3]", "value": 5.8, "unit": "fold"},
      {"measurement": "activation, second DR4-2 single mutant (DR4-2/hs2)", "setting": "[3]", "value": 5.3, "unit": "fold"},
      {"measurement": "drug response, both NR binding sites of 369 bp element altered", "setting": "[3]", "value": "elimination of PXR-mediated drug response"},
      {"measurement": "induction, 369 bp wild type", "setting": "[3]", "value": 5.6, "unit": "fold"},
      {"measurement": "induction, DR4-2 double mutant", "setting": "[3]", "value": 2.5, "unit": "fold"},
      {"measurement": "induction, first DR4-1 single mutant (DR4-1/hs1)", "setting": "[3]", "value": 2.7, "unit": "fold"},
      {"measurement": "induction, second DR4-1 single mutant (DR4-1/hs2)", "setting": "[3]", "value": 2.0, "unit": "fold"}
    ]},
    {"smiles": "CC#C[C@]1(O)CC[C@H]2[C@@H]3CCC4=CC(=O)CCC4=C3[C@@H](c3ccc(N(C)C)cc3)C[C@@]21C", "note": "[RU-486, Mifepristone]", "values": [
      {"measurement": "ADRES activation in reporter assays", "setting": "[1]", "value": "minor or no effects"},
      {"measurement": "effect on ALAS1 mRNA levels", "setting": "[2]; LMH cells, 16 h, PB 600 μM, dexamethasone 50 μM, RU-486 10 μM, rifampicin 100 μM, TCPOBOP 10 μM", "value": "minor or no effects"}
    ]},
    {"smiles": "C[C@@]12CCC[C@H]1[C@@H]1CC[C@H]3C[C@@H](O)CC[C@]3(C)[C@H]1CC2", "note": "[androstanol]", "values": [
      {"measurement": "basal expression exceeding androstanol-treated levels, DR4-2/hs1 single mutant", "setting": "[4]", "value": 2.5, "unit": "fold"},
      {"measurement": "basal expression exceeding androstanol-treated levels, DR4-2/hs2 single mutant", "setting": "[4]", "value": 1.9, "unit": "fold"}
    ]},
    {"smiles": "CCC1(c2ccccc2)CCC(=O)NC1=O", "note": "(stereo not drawn) [glutethimide, Glutethimide]", "values": [
      {"measurement": "ADRES activation in reporter assays", "setting": "[1]", "value": "in excess of levels obtained from PB treatment"},
      {"measurement": "relative response of the 176 bp element", "setting": "[1]; glutethimide 500 μM vs metyrapone 400 μM", "value": "slightly more affinity for glutethimide than metyrapone"},
      {"measurement": "induction of the 369 bp DRES, ranking of drugs", "setting": "[5]", "value": "strongest inducer"}
    ]},
    {"smiles": "CC(C)(C(=O)c1cccnc1)c1cccnc1", "note": "[metyrapone, 2-methyl-1,2-di-3-pyridyl-propadone]", "values": [
      {"measurement": "ADRES activation in reporter assays", "setting": "[1]", "value": "in excess of levels obtained from PB treatment"},
      {"measurement": "relative response of the 167 bp element", "setting": "[1]; metyrapone 400 μM vs glutethimide 500 μM", "value": "stronger response to metyrapone than glutethimide"},
      {"measurement": "induction of mouse 175, 280, 321, 328 and 369 bp fragments", "setting": "[5]; Metyrapone 500 μM", "value": "enhanced induction"},
      {"measurement": "induction of the 369 bp DRES, ranking of drugs", "setting": "[5]", "value": "strongest inducer"}
    ]}
  ]
}
